According to patent US20080085855A1, “Perivascular wraps” (Angiotech International AG, priority 2002, published 2008):

Assays:
intimal hyperplasia [1] = assay: Rat balloon injury carotid artery model, paclitaxel containing mesh; format: in vivo; details: 1×1 cm paclitaxel-containing mesh (345 μg paclitaxel in 50:50 PLG coating on 10:90 PLG mesh), perivascular, 14 days after balloon injury
Protocol: Wistar rats weighing 400-500 g were anesthetized with 1.5% halothane in oxygen and the left external carotid artery was exposed. An A 2 French Fogarty balloon embolectomy catheter (Baxter, Irvine, Calif.) was advanced through an arteriotomy in the external carotid artery down the left common carotid artery to the aorta. The balloon was inflated with enough saline to generate slight resistance (approximately 0.02 ml) and it was withdrawn with a twisting motion to the carotid bifurcation. The balloon was then deflated and the procedure repeated twice more. This technique produced distension of the arterial wall and denudation of the endothelium. The external carotid artery was ligated after removal of the catheter. The right common carotid artery was not injured and was used as a control.
Immediately after injury of the left common carotid artery, a 1 cm long distal segment of the artery was exposed and treated with a 1×1 cm paclitaxel-containing mesh. The wound was then closed the animals were kept for 14 days.
At the time of sacrifice, the animals were euthanized with carbon dioxide and pressure perfused at 100 mmHg with 10% phosphate buffered formaldehyde for 15 minutes. Both carotid arteries were harvested and left overnight in fixative. The fixed arteries were processed and embedded in paraffin wax. […]

intimal hyperplasia [2] = assay: Sheep carotid artery bypass graft (ePTFE) model, paclitaxel containing mesh; details: for Percent Change in Maximal Intimal Thickness / Percent Change in % Stenosis / Percent Change in Intimal Area: vs zero-dose mesh;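 on all read-outs here: sheep with ePTFE carotid bypass grafts, PLG mesh wrapped at the distal anastomosis, histology of fixed graft and artery sections about 56 days after implantation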
Protocol: The left and right carotid arteries of anesthetized sheep were exposed by sharp dissection. A tunnel was formed from one carotid artery to the other to accommodate the ePTFE graft. The ePTFE graft was tunneled and trimmed for appropriate length and configuration. Using standard vascular technique, the ePTFE graft was anastomosed end-to-side with running 6-0 polypropylene suture. The angle of the junction between graft and native vessel was approximately 45°. The length of the implanted graft ranged from 9.5-15 cm (average 11 cm).
Paclitaxel was incorporated into the 2 cm×5 cm PLG mesh in the following doses and animal test groups: Group 1, 0 mg; Group 2, 0.6 mg; Group 3, 1.8 mg; and Group 4, 3.0 mg. The mesh was placed at the distal end of the graft at the anastomosis site. To place the mesh, the long side was pulled under the artery and up around either side of the distal end of the graft. One edge was positioned as close to the heel of the anastomosis as possible. The top edges of the mesh were sewn together with one suture on either side of the graft so that no gaps were left in the circumferential direction. One suture was placed at the proximal end and the other at the distal end of the mesh, and sewn to nearby connective tissue to prevent slippage of the mesh away from the anastomosis (see FIG. 6). The surgical sites were closed in layers with running absorbable sutures. Standard antibiotics and analgesics were administered after surgery for several days as required.
At approximately 56 days post-graft implant, animals were anesthetized. Contrast media was injected and angiograms performed of the distal graft and artery at the distal anastomosis. Immediately prior to euthanasia, the animals received heparin (150 U/kg, IV) and immediately after euthanasia, the ePTFE graft was rinsed in situ with lactated Ringers solution and perfusion-fixed in situ with 10% neutral buffered formalin (NBF). The specimens were excised en bloc and allowed to immersion fix in 10% NBF at least 24 hours prior to histological processing.
The fixed specimens were trimmed and mapped accurately for corresponding cross sectional location in reference to the ePTFE graft configuration. […] A total of nine sections were cut at the distal end of the graft: two cut perpendicular to the artery on either side of the anastomosis (A1 and A5), one perpendicular to the artery through the “toe” of the anastomosis (A2), one or two cut through the floor of the anastomosis adjacent to the “toe” (A3 and A4), three cut perpendicular to the graft at its distal end, and one through the center of the graft. Adjacent sections were cut at approximately 3 mm intervals. The specimens were paraffin-embedded, cross-sectioned, and four sets of slides made, two stained with hematoxylin and eosin (H&E), and one each stained with Masson's trichrome and Verhoeff Van Gieson (VVG). These stains were selected for their ability to show tissue cellularity (H&E), collagen, smooth muscle and fibrin (Masson's Trichrome), and elastin (VVG).
The morphometric analysis system consists of an Olympus BX40 microscope, Optronics Image Sensor DEI-750, Sony HR Trinitron monitor, and PC computer equipped with Media Cybernetics Image-Pro Plus software v.

[3] = Dose 0.6 (mg in PLG mesh, Group 2), Graft Section 6, approx. 56 days
[4] = Dose 0.6 (mg in PLG mesh, Group 2), Graft Section 7, approx. 56 days
[5] = Dose 0.6 (mg in PLG mesh, Group 2), Graft Section 8, approx. 56 days
[6] = Dose 1.8 (mg in PLG mesh, Group 3), Graft Section 6, approx. 56 days
[7] = Dose 1.8 (mg in PLG mesh, Group 3), Graft Section 7, approx. 56 days
[8] = Dose 1.8 (mg in PLG mesh, Group 3), Graft Section 8, approx. 56 days
[9] = Dose 3.0 (mg in PLG mesh, Group 4), Graft Section 6, approx. 56 days
[10] = Dose 3.0 (mg in PLG mesh, Group 4), Graft Section 7, approx. 56 days
[11] = Dose 3.0 (mg in PLG mesh, Group 4), Graft Section 8, approx. 56 days

In the case of CC(=O)O[C@H]1C(=O)[C@@]2(C)[C@H]([C@H](OC(=O)c3ccccc3)[C@]3(O)C[C@H](OC(=O)[C@H](O)[C@@H](NC(=O)c4ccccc4)c4ccccc4)C(C)=C1C3(C)C)[C@]1(OC(C)=O)CO[C@@H]1C[C@@H]2O [Paclitaxel, paclitaxel], the “intimal hyperplasia (histology, FIGS. 3-5)” value (intimal hyperplasia [1]) is reported as “dramatic reduction in intimal hyperplasia”, the “Percent Change in Maximal Intimal Thickness” value (intimal hyperplasia [2]; Dose 0.6 (mg in 2 cm×5 cm PLG mesh, Group 2), Graft "Toe" Section 2, approx. 56 days) is reported as −5% and the “Percent Change in % Stenosis” value (intimal hyperplasia [2]; [3]) is reported as −59%^. The “Percent Change in Intimal Area” value (intimal hyperplasia [2]; [3]) was −62%^, the “Percent Change in Maximal Intimal Thickness” value (intimal hyperplasia [2]; [3]) was −71%^2 and the “Percent Change in % Stenosis” value (intimal hyperplasia [2]; [4]) was −66%^2. The “Percent Change in Intimal Area” value (intimal hyperplasia [2]; [4]) was −67%^2, the “Percent Change in Maximal Intimal Thickness” value (intimal hyperplasia [2]; [4]) was −65% and the “Percent Change in % Stenosis” value (intimal hyperplasia [2]; [5]) was −75%^2. For the same molecule, the “Percent Change in Intimal Area” value (intimal hyperplasia [2]; [5]) was −77%, the “Percent Change in Maximal Intimal Thickness” value (intimal hyperplasia [2]; [5]) was −59% and the “Percent Change in Maximal Intimal Thickness” value (intimal hyperplasia [2]; Dose 1.8 (mg in PLG mesh, Group 3), Graft "Toe" Section 2, approx. 56 days) was −28%. For the same molecule, the “Percent Change in % Stenosis” value (intimal hyperplasia [2]; [6]) was −84%^2, the “Percent Change in Intimal Area” value (intimal hyperplasia [2]; [6]) was −85%^2 and the “Percent Change in Maximal Intimal Thickness” value (intimal hyperplasia [2]; [6]) was −77%^2. For the same molecule, the “Percent Change in % Stenosis” value (intimal hyperplasia [2]; [7]) was −85%^2, the “Percent Change in Intimal Area” value (intimal hyperplasia [2]; [7]) was −85%^2 and the “Percent Change in Maximal Intimal Thickness” value (intimal hyperplasia [2]; [7]) was −71%^2. For the same molecule, the “Percent Change in % Stenosis” value (intimal hyperplasia [2]; [8]) was −75%^2, the “Percent Change in Intimal Area” value (intimal hyperplasia [2]; [8]) was −76% and the “Percent Change in Maximal Intimal Thickness” value (intimal hyperplasia [2]; [8]) was −63%. The “Percent Change in Maximal Intimal Thickness” value (intimal hyperplasia [2]; Dose 3.0 (mg in PLG mesh, Group 4), Graft "Toe" Section 2, approx. 56 days) was −34%, the “Percent Change in % Stenosis” value (intimal hyperplasia [2]; [9]) was −81%^2 and the “Percent Change in Intimal Area” value (intimal hyperplasia [2]; [9]) was −82%^2. For the same molecule, the “Percent Change in Maximal Intimal Thickness” value (intimal hyperplasia [2]; [9]) was −74%^2, the “Percent Change in % Stenosis” value (intimal hyperplasia [2]; [10]) was −79%^2 and the “Percent Change in Intimal Area” value (intimal hyperplasia [2]; [10]) was −80%^2. The “Percent Change in Maximal Intimal Thickness” value (intimal hyperplasia [2]; [10]) was −69%, the “Percent Change in % Stenosis” value (intimal hyperplasia [2]; [11]) was −86%^ and the “Percent Change in Intimal Area” value (intimal hyperplasia [2]; [11]) was −86%. The “Percent Change in Maximal Intimal Thickness” value (intimal hyperplasia [2]; [11]) was −83%^2, the “MIT (maximal neointimal thickness), group average ±SD” value (from here on “MIT … group average ±SD”) (intimal hyperplasia [2]; Section 2 ("toe" section), high dose (3.0 mg), approx. 56 days) was 0.54±0.23 mm and the “MIT less than controls” value (intimal hyperplasia [2]; Section 2 ("toe" section), high dose (3.0 mg), not statistically significant (p>0.05)) was 34%. For the same molecule, the “MIT … group average ±SD” value (intimal hyperplasia [2]; Section 2 ("toe" section), low dose (0.6 mg), approx. 56 days) was 0.78±0.30 mm, the “MIT less than controls” value (intimal hyperplasia [2]; Section 2 ("toe" section), low dose (0.6 mg), not statistically significant (p>0.05)) was 5% and the “MIT … group average ±SD” value (intimal hyperplasia [2]; Section 2 ("toe" section), mid dose (1.8 mg), approx. 56 days) was 0.59±0.14 mm. The “MIT less than controls” value (intimal hyperplasia [2]; Section 2 ("toe" section), mid dose (1.8 mg), not statistically significant (p>0.05)) was 28%, the “mechanical integrity of the anastomosis (leakage)” value (intimal hyperplasia [2]; dose range tested (0.6-3.0 mg in mesh)) was “does not affect the mechanical integrity of the anastomosis” and the Intraluminal endothelialization (intimal hyperplasia [2]; doses tested (0.6-3.0 mg in mesh)) was “not affected”. For the same molecule, the “lesions causing luminal narrowing at the distal end of the graft” value (intimal hyperplasia [2]; lowest paclitaxel dose, 0.6 mg) was “marked and signifimayt reduction”, the reduction in stenosis (intimal hyperplasia [2]; paclitaxel groups (0.6, 1.8, 3.0 mg), sections 6, 7, 8, 7 of 9 values significantly lower than controls (p≦0.05)) was 70-80% and the “IA (neointimal area) reduced” value (intimal hyperplasia [2]; paclitaxel groups (0.6, 1.8, 3.0 mg), sections 6, 7, 8, vs control group) was 70-80%. The “MIT … group average ±SD” value (intimal hyperplasia [2]; section 6 (first full cross section of graft adjacent to the distal anastomosis), low dose (0.6 mg), p<0.05) was 0.38±0.12 mm, the “MIT … group average ±SD” value (intimal hyperplasia [2]; section 6, high dose (3.0 mg), p<0.05) was 0.34±0.20 mm and the “MIT … group average ±SD” value (intimal hyperplasia [2]; section 6, medium dose (1.8 mg), p<0.05) was 0.31±0.29 mm. For the same molecule, the “MIT less than controls” value (intimal hyperplasia [2]; sections 7 and 8, all the paclitaxel groups (0.6, 1.8, 3.0 mg)) was “approximately 70%”.
